Results published in publication PMC5048394, “Development and substrate specificity screening of an in vivo biosensor for the detection of biomass derived aromatic chemical building blocks” (Chemical Communications (Cambridge, England), 2016).
Where two headings read alike, the source gives them in different places.

Legend:
PLC biosensor [1] = experiment: PLC biosensor eGFP expression in E. coli K strain (DH10B, Top10F'); assay type: cell-based
Protocol: (§1) Cells were centrifuged, washed and re-suspended with PBS buffer. The expression output was then analyzed by monitoring the fluorescence normalised to cell density (RFU/OD600) in a multimode plate reader (Methods, ESI ^†).
(§2) The sequences containing the PLC, PPC and PferB promoters, a RBS, and a Hexa-Histidine tag, flanked by SphI/NdeI were synthetized (GeneART, ThermoFisher). The sequences were enzyme restricted with SphI/NdeI and cloned in pET44eGFP,2 upstream to the eGFP gene, replacing the T7 promoter region generating respectively, the pET44PLCeGFP, pET44PPCeGFP and pET44PferBeGFP vectors.
(§3) The FerCA DNA sequence containing the ferA and ferC genes, individually flanked by a PLacI promoter and an rrn_B1 terminator, was synthetized by GeneARTTM (ThermoFisher).
(§4) The construct was cloned in a p15 plasmid flanked by NaeI/KasI restriction sites generating […]
(§5) the p15FerCA vector. […]
(§6) Biosensors Performance and Screening Methods
(§7) Reporter controls and the biosensor systems PLC, PPC and PferB were respectively generated by transformation of pET44PLCeGFP, pET44PPCeGFP and pET44PFerBeGFP vectors alone or with p15FerCA in BL21 and DH10B chemically competent E. coli cells. A single colony of each system was grown in LB media supplemented with antibiotics at 37 °C with shaking at 180rpm for 16 hours. Cultures were diluted (1:100) in fresh LB media with appropriate antibiotics, re-incubated at 37 °C with shaking until OD ~0.6 and transferred (450 μL) to multi- […]
(§8) μM and 1000 μM. Induction plates were incubated at 37 °C, with shaking at 1000 RPM (Stuart microtitre plate shaker incubator) for 3 hours. Cells were harvested by centrifugation, washed twice and re-suspended with PBS buffer. Expression output was analyzed by monitoring the fluorescence normalised to cell density (RFU/OD) in a multimode plate reader. […]
(§9) Data Processing and Curve Fitting
(§10) Biosensor signal output (eGFP expression) was measured as Relative Fluorescence Units (RFU) and normalised to cell density (OD600). The background auto-fluorescence of E. coli was subtracted from RFU/OD and was normalised (%) to the pLC biosensor response curve to ferulic acid for each experiment. The normalised data was plotted and fitted with a dose-response curve using the Levenberg Marquardt logistic growth/sigmoidal algorithm, using the Origin 2015 (OriginLab, Northampton MA USA) program. The biomass screening data was […]

PferB biosensor [2] = experiment: PferB biosensor eGFP expression (RFU/OD600) in E. coli BL21; assay type: cell-based
Protocol: as §1, §2, §3, §4, §5, §6, §7, §8, §9, §10

PLC biosensor [3] = experiment: microbe, parasite or virus in culture; assay type: cell-based, E. coli BL21
Protocol: as §1, §2, §3, §4, §5, §6, §7, §8
Compounds for screening were selected using cinnamic acid as a reference structure. The 58 selected compounds were tested with the PLC biosensor in E. coli BL21 cells. The substrate screening assays were performed using concentrations ranging from 0.32 μM to 1000 μM, as described for Ferulic acid. […]
as §9, §10

PPC biosensor [4] = experiment: PPC biosensor eGFP expression (RFU/OD600) in E. coli BL21; assay type: cell-based
Protocol: as §1, §2, §3, §4, §5, §6, §7, §8, §9, §10

PPC biosensor [5] = experiment: PPC biosensor eGFP expression in E. coli K strain (DH10B, Top10F'); assay type: cell-based
Protocol: as §1, §2, §3, §4, §5, §6, §7, §8, §9, §10

PferB biosensor [6] = experiment: PferB biosensor eGFP expression in E. coli K strain (DH10B, Top10F'); assay type: cell-based
Protocol: as §1, §2, §3, §4, §5, §6, §7, §8, §9, §10

[7] = system: ferA knock-out (AKO) PLC and PferB systems; experiment: FerA knock-out (AKO) system FA induction assay; assay type: cell-based; details: ferA knock-out (AKO) strains, E. coli BL21
From the text: as §2, §3
The construct was cloned in a p15 plasmid flanked by NaeI/KasI restriction sites generating the p15FerCA vector. The ferA gene was removed by restriction digestion of two XbaI flanking sites. The remaining backbone with ferC was re-circularized to originate the p15FerC vector, and the obtained plasmid was sequenced to confirm identity.
as §6
Reporter controls and the biosensor systems PLC, PPC and PferB were respectively generated by transformation of pET44PLCeGFP, pET44PPCeGFP and pET44PFerBeGFP vectors alone or with p15FerCA in BL21 and DH10B chemically competent E. coli cells. […] Expression output was analyzed by monitoring the fluorescence normalised to cell density (RFU/OD) in a multimode plate reader. […]

[8] = PLC biosensor, E. coli K strain (DH10B)
[9] = ferulic acid dose response, PLC biosensor, Top10F' (DH10B)
[10] = ferulic acid dose response, PferB biosensor, E. coli BL21
[11] = Escherichia coli, BL21, ferulic acid dose response, PLC biosensor, E. coli BL21
[12] = Escherichia coli, BL21, substrate screening, PLC biosensor, E. coli BL21
[13] = ferulic acid, PLC biosensor, E. coli BL21, text
[14] = ferulic acid dose response, PPC biosensor, E. coli BL21
[15] = ferulic acid dose response, PPC biosensor, Top10F' (DH10B)
[16] = ferulic acid dose response, PferB biosensor, Top10F' (DH10B)

Q: What does the source list for `COc1cc(/C=C/C(=O)O)ccc1O` [compound 1, trans-Ferulic acid]?
A: EC50 (PLC biosensor [1]; Escherichia coli): 22.8 ± 5.2 µM; EC90 (PLC biosensor [1]; Escherichia coli): 83 µM; De-repression (PLC biosensor [1]; [8]): incomplete de-repression; Relative signal range (PLC biosensor [1]; [8]): ~19 fold; Sensing range (EC90/EC10) (PLC biosensor [1]; [8]): 13 fold; EC10 (PLC biosensor [1]; [9]): 6.3 µM; Ebasal (fitting curve) (PLC biosensor [1]; [9]): 6.1 RFU/OD; Emax (fitting curve) (PLC biosensor [1]; [9]): 100.0 RFU/OD; Sensing range (EC90/EC10) (PLC biosensor [1]; [9]): 13.3; Signal range (max/min) (PLC biosensor [1]; [9]): 19.2; p (fitting curve) (PLC biosensor [1]; [9]): 1.7; EC50 (PferB biosensor [2]; Escherichia coli, BL21): 60.5 ± 2.3 µM; EC90 (PferB biosensor [2]; Escherichia coli, BL21): 191 µM; EC10 (PferB biosensor [2]; [10]): 19.2 µM; Ebasal (fitting curve) (PferB biosensor [2]; [10]): 3.7 RFU/OD; Emax (fitting curve) (PferB biosensor [2]; [10]): 17.0 RFU/OD; Sensing range (EC90/EC10) (PferB biosensor [2]; [10]): 9.9; Signal range (max/min) (PferB biosensor [2]; [10]): 5.0; p (fitting curve) (PferB biosensor [2]; [10]): 1.9; De-repression (PferB biosensor [2]; ferulic acid, PferB biosensor, E. coli BL21): effectively de-repressed; EC10 (PLC biosensor [3]; [11]): 5.6 µM; EC50 (PLC biosensor [3]; [11]): 20.9 ± 4.2 µM; EC90 (PLC biosensor [3]; [11]): 77.4 µM; Emax (PLC biosensor [3]; Escherichia coli, BL21, read-out: Induction): > 70%; maximal fold induction (PLC biosensor [3]; Escherichia coli, BL21, read-out: Signal range (max/min), ferulic acid dose response, PLC biosensor, E. coli BL21): 22.8; maximal fold induction (PLC biosensor [3]; Escherichia coli, BL21, read-out: Signal range (max/min), substrate screening, PLC biosensor, E. coli BL21): 26.2; EC10 (PLC biosensor [3]; [12]): 3.9 µM; EC50 (PLC biosensor [3]; [12]): 15.3 ± 0.9 µM; EC90 (PLC biosensor [3]; [12]): 59.5 µM; Saturation concentration (PLC biosensor [3]; ferulic acid dose response, PLC biosensor, E. coli BL21): ≥ 100 µM; De-repression (incomplete), % of the PLC reporter (PLC biosensor [3]; ferulic acid, PLC biosensor, E. coli BL21): ~85%; Sensing range (PLC biosensor [3]; [13]): 13 fold; Signal range (PLC biosensor [3]; [13]): ~23 fold; Induction (PLC biosensor [3]; substrate screening, PLC biosensor, E. coli BL21, 0.32–1000 μM): H (high output signals, and hence good efficacy (>70%)); Signal read-out range (PLC biosensor [3]; substrate screening, PLC biosensor, E. coli BL21, text): > 25 fold; EC50 (PPC biosensor [4]; Escherichia coli, BL21): 11.2 ± 1.1 µM; EC90 (PPC biosensor [4]; Escherichia coli, BL21): 38 µM; Concentration for complete de-repression (PPC biosensor [4]; [14]): ≥ 40 µM; EC10 (PPC biosensor [4]; [14]): 3.3 µM; Ebasal (fitting curve) (PPC biosensor [4]; [14]): 4.2 RFU/OD; Emax (fitting curve) (PPC biosensor [4]; [14]): 46.6 RFU/OD; Sensing range (EC90/EC10) (PPC biosensor [4]; [14]): 11.5; Signal range (max/min) (PPC biosensor [4]; [14]): 10.4; p (fitting curve) (PPC biosensor [4]; [14]): 1.8; EC50 (PPC biosensor [5]; Escherichia coli): 10.4 µM; EC90 (PPC biosensor [5]; Escherichia coli): 33.3 µM; De-repression (PPC biosensor [5]; PPC biosensor, E. coli K strain (DH10B)): complete de-repression; EC10 (PPC biosensor [5]; [15]): 3.3 µM; Ebasal (fitting curve) (PPC biosensor [5]; [15]): 4.7 RFU/OD; Emax (fitting curve) (PPC biosensor [5]; [15]): 44.7 RFU/OD; Sensing range (EC90/EC10) (PPC biosensor [5]; [15]): 10.2; Signal range (max/min) (PPC biosensor [5]; [15]): 12.4; p (fitting curve) (PPC biosensor [5]; [15]): 1.9; EC50 (PferB biosensor [6]; Escherichia coli): 79.6 µM; EC90 (PferB biosensor [6]; Escherichia coli): 276 µM; De-repression (PferB biosensor [6]; PferB biosensor, E. coli K strain (DH10B)): complete de-repression; EC10 (PferB biosensor [6]; [16]): 22.9 µM; Ebasal (fitting curve) (PferB biosensor [6]; [16]): 4.3 RFU/OD; Emax (fitting curve) (PferB biosensor [6]; [16]): 20.5 RFU/OD; Sensing range (EC90/EC10) (PferB biosensor [6]; [16]): 12.0; Signal range (max/min) (PferB biosensor [6]; [16]): 4.7; p (fitting curve) (PferB biosensor [6]; [16]): 1.8; De-repression phenotype upon addition to growth media [7]: lacked the de-repression phenotype
